61 molecules from patent US20070197532A1, “GLUCOKINASE ACTIVATORS” (priority 2005, published 2007) can be followed below.

The experiment deals with T1, glucokinase (GK) (Homo sapiens, UniProt P35557).
T1 construct: I.D. No. 1 corresponds to residues 13-466 of glucokinase; made in house; host or cells: E. coli DH10b-T1r
T1 sequence (P35557 with tags, fused parts or gaps isoform P35557-2): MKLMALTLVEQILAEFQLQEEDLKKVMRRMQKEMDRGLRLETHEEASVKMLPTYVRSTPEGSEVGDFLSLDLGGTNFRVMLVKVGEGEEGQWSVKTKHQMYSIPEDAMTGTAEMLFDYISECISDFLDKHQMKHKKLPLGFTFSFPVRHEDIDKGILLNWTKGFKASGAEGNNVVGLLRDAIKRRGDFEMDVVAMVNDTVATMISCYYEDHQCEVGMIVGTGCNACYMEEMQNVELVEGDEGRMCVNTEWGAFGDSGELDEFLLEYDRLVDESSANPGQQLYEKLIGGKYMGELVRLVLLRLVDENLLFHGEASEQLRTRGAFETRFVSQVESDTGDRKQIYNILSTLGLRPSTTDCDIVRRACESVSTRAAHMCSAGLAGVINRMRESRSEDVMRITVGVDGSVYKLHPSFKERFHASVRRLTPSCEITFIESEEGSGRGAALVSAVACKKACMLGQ
In words: enzymatic glucokinase activity assay (ATP consumption, KinaseGlo luminescence). Format: biochemical. The settings on record: recombinant GK; 5 μM ATP, 5 mM Glucose, 2% DMSO, 60 min at room temperature; Kact = concentration giving 50% of the maximal increase in GK activity; read-out: pKact. The text has this:
The activity of compounds as glucokinase activators may be assayed in vitro, in vivo or in a cell line. Provided below is an enzymatic glucokinase activity assay.
Purified glucokinase may be obtained as follows. DNA encoding residues 12-465 of the full-length sequence of the human enzyme may be amplified by PCR and cloned into the HindIII and EcoRI sites of pFLAG-CTC (Sigma). SEQ. I.D. No. 1 corresponds to residues 13-466 of glucokinase.
The expression of recombinant glucokinase protein may be carried out by transformation and growth of DH10b-T1r E. coli cells incorporating the (pFLAG-CTC) plasmid in LB media. Protein expression can be induced in this system by the addition of IPTG to the culture medium.
Recombinant protein may be isolated from cellular extracts by passage over Sepharose Q Fast Flow resin (Pharmacia). This partially purified GK extract may then be further purified by a second passage over Poros HQ10 (Applied Biosystems). The purity of GK may be determined on denaturing SDS-PAGE gel. Purified GK may then be concentrated to a final concentration of 20.0 mg/ml. After flash freezing in liquid nitrogen, the proteins can be stored at −78° C. in a buffer containing 25 mM TRIS-HCl pH 7.6, 50 mM NaCl, and 0.5 mM TCEP.
The activation properties of compounds for GK may be determined using a black 384-well-plate format under the following reaction conditions: 25 mM Hepes pH 7.2, 25 mM NaCl, 10 mM MgCl2, 0.01% Brij35, 1 mM DTT, 5 μM ATP, 5 mM Glucose 2% DMSO. The amount of ATP consumed may be determined quantitatively by addition of equal volume of luciferase reagent (luciferase+beetle luciferin—KinaseGlo Luminescent Kinase Assay kit from Promega). The luminescence intensity may be measured by using the Analyst HT from LJL Biosystems.
The assay reaction may be initiated as follows: 4 μl of substrate mixture (12.5 μM ATP and 12.5 mM Glucose) was added to each well of the plate, followed by the addition of 2 μl of activator (2 fold serial dilutions for 11 data points for each activator) containing 10% DMSO. 4 μL of 1.25 nM GK solution may be added to initiate the reaction. The reaction mixture may then be incubated at room temperature for 60 min, and quenched and developed by addition of 10 μL of luciferase reagent. Luminescence intensities of the resulting reaction mixtures may be measured after a 10 min incubation at room temperature. The luminescence intensity may be measured by using the Analyst HT from LJL Biosystems.
pKact and % ACTmax values may be calculated by non-linear curve fitting of the compound concentrations and luminescence intensities to a standard inhibition/activation equation.
(In general: In Kinase-Glo more light means more ATP remaining.)

Consider `FC(F)(F)COc1ccc(OCC(F)(F)F)c(-c2ccn[nH]2)c1`, for which the EC50 is not above 2 µM.

In the case of `Fc1ccc(-c2cc(-c3cccc(Oc4ccccc4)c3)[nH]n2)cc1`, the EC50 was not above 2 µM.

Take `COc1cc(OCc2ccccc2)ccc1-c1cc(-c2ccc(F)cc2)n[nH]1`: the EC50 was not above 2 µM.

As for `COc1ccccc1-c1cc(-c2cccc(NC(=O)c3ccccc3)c2)n[nH]1`, the EC50 is 2.51 to 3.98 µM.

As to `COc1ccc(F)cc1-c1cc(OCc2ccccc2F)n[nH]1`, the EC50 was not below 5.01 µM.

As to `Clc1cccc(Oc2ccccc2-c2cc(-c3cccnc3)n[nH]2)c1`, the EC50 is 2.51 to 3.98 µM.

On to `COc1ccc(NC(=O)Cc2ccccc2)cc1-c1cc(-c2ccccc2)n[nH]1`, for which the EC50 is not above 2 µM.

Regarding `COc1cc(-c2cc(Oc3ccc(S(C)(=O)=O)cc3)cc(OC3CCCC3)c2)[nH]n1`, the EC50 is not above 2 µM.

Take `COc1ccc(NC(=O)c2ccccc2)cc1-c1cc(-c2ccccc2)n[nH]1`: the EC50 is 2.51 to 3.98 µM.

On to `COc1ccccc1-c1cc(-c2ccccc2Cl)n[nH]1`, for which the EC50 lay within 2.51 to 3.98 µM.

Consider `COc1ccccc1-c1cc(-c2cccc(F)c2)[nH]n1`, for which the EC50 was not below 5.01 µM.

On to `COc1cc(NCc2ccccc2)ccc1-c1cc(-c2ccccc2)n[nH]1`, for which the EC50 lay within 2.51 to 3.98 µM.

For `COC[C@H](C)Oc1cc(OCc2ccc(S(C)(=O)=O)cc2)cc(-c2cc(OC)n[nH]2)c1`, the EC50 is 2.51 to 3.98 µM.

As for `Fc1ccc(-c2cc(-c3cccc(Oc4ncccn4)c3)[nH]n2)cc1`, the EC50 is not below 5.01 µM.

On to `Cc1cccnc1COc1cc(Oc2ccc(S(C)(=O)=O)cc2)cc(-c2cc(O)n[nH]2)c1`, for which the EC50 was not below 5.01 µM.

As for `COc1ccccc1-c1cc(-c2ccc(N)cc2)n[nH]1`, the EC50 was not below 5.01 µM.

Regarding `Cc1ccccc1COc1cc(Oc2ccc(S(C)(=O)=O)cc2)cc(-c2cc(O)n[nH]2)c1`, the EC50 is not below 5.01 µM.

As to `COc1ccc(F)cc1-c1cc(-c2cccc(F)c2)[nH]n1`, the EC50 fell in the range of 2.51 to 3.98 µM.

Turning to `COC[C@H](C)Oc1cc(Oc2ccc(S(C)(=O)=O)cc2)cc(-c2cc(OCC(=O)OC)n[nH]2)c1`, the EC50 was in the range of 2.51 to 3.98 µM.

Consider `COc1ccccc1-c1cc(-c2ccc(F)cc2)n[nH]1`, for which the EC50 is 2.51 to 3.98 µM.

Regarding `c1ccc(-c2cc(-c3ccccc3Oc3cccnc3)[nH]n2)cc1`, the EC50 was 2.51 to 3.98 µM.

Take `COCCOc1cc(OCc2ccccc2)ccc1-c1cc(-c2ccccc2)n[nH]1`: the EC50 was not above 2 µM.

For the molecule `COc1cc(-c2ccc3ncn(CC4CCCCC4)c3c2)[nH]n1`, the EC50 is not below 5.01 µM.

Take `COc1ccc(CNc2ccc(-c3cc(-c4ccccc4OC)[nH]n3)cn2)c(OC)c1`: the EC50 is not above 2 µM.

Turning to `Fc1ccccc1COc1cc(-c2cccc3c2OCC3)[nH]n1`, the EC50 is not below 5.01 µM.

Consider `Brc1cc2c(c(-c3cc(-c4ccccc4)n[nH]3)c1)OCC2`, for which the EC50 was not below 5.01 µM.

In the case of `COc1ccccc1-c1nnc(SCC(=O)Nc2ccc(C)c(C)c2)[nH]1`, the EC50 is not above 2 µM.

On to `COc1ccccc1-c1cc(-c2ccccc2)n[nH]1`, for which the EC50 lay in the range of 2.51 to 3.98 µM.

With `COc1cc(-c2cc(OCc3ncccc3C)cc(Oc3ccc(S(C)(=O)=O)cc3)c2)[nH]n1`, the EC50 is not above 2 µM.

Turning to `COc1ccccc1-c1nc(SCC(=O)c2ccc(O)c(O)c2)n[nH]1`, the EC50 fell in the range of 2.51 to 3.98 µM.

For `COc1ccc(COc2ccc(-c3cc(-c4ccccc4)n[nH]3)c(OC)c2)cc1`, the EC50 was 2.51 to 3.98 µM.

On to `COc1cc(-c2cc(OCc3ccccc3C)cc(Oc3ccc(S(C)(=O)=O)cc3)c2)[nH]n1`, for which the EC50 was not above 2 µM.

`c1ccc(-c2cc(-c3ccccc3OCc3ccccn3)[nH]n2)cc1`: the EC50 lay within 2.51 to 3.98 µM.

In the case of `COC[C@H](C)Oc1cc(OCCc2ccsc2)cc(-c2cc(OC)n[nH]2)c1`, the EC50 is not above 2 µM.

For the molecule `COC[C@H](C)Oc1cc(Oc2ccc(S(C)(=O)=O)cc2)cc(-c2cc(OC)n[nH]2)c1`, the EC50 is not above 2 µM.

Regarding `Cn1ccnc1COc1ccccc1-c1cc(-c2ccc(F)cc2)n[nH]1`, the EC50 is not above 2 µM.

Turning to `Fc1ccccc1CSc1n[nH]c(-c2ccccc2OCc2ccccc2)n1`, the EC50 is not above 2 µM.

For the molecule `CC1(C)Cc2cccc(-c3cc(-c4ccccc4)n[nH]3)c2O1`, the EC50 was not above 2 µM.

As to `COc1ccc(NC(=O)c2ccoc2)cc1-c1cc(-c2ccccc2)n[nH]1`, the EC50 was in the range of 2.51 to 3.98 µM.

As for `CS(=O)(=O)c1ccc(Oc2cc(OCc3ccccc3F)cc(-c3cc(O)n[nH]3)c2)cc1`, the EC50 was not below 5.01 µM.

`COc1ccccc1-c1cc(-c2cccc(C#N)c2)n[nH]1`: the EC50 lay in the range of 2.51 to 3.98 µM.

For the molecule `COc1ccccc1-c1cc(-c2ccc(N(C)C)nc2)n[nH]1`, the EC50 is 2.51 to 3.98 µM.

As to `COc1cc(-c2cc(OCc3ccccc3F)cc(Oc3ccc(S(C)(=O)=O)cc3)c2)[nH]n1`, the EC50 is not above 2 µM.

Turning to `COCCNc1ccc(-c2cc(-c3ccccc3OC)[nH]n2)cn1`, the EC50 lay within 2.51 to 3.98 µM.

For the molecule `COc1ccccc1-c1cc(-c2ccc(N3CCOCC3)nc2)n[nH]1`, the EC50 is not below 5.01 µM.

Consider `COc1ccccc1-c1cc(-c2ccc(C#N)cc2)n[nH]1`, for which the EC50 was in the range of 2.51 to 3.98 µM.

On to `COC[C@H](C)Oc1cc(OCc2ccccc2F)cc(-c2cc(OC)n[nH]2)c1`, for which the EC50 is not below 5.01 µM.

For the molecule `COc1cc(NC(=O)c2ccccc2)ccc1-c1cc(-c2ccccc2)n[nH]1`, the EC50 was not above 2 µM.

Consider `COc1ccccc1-c1cc(-c2cccc(N)c2)n[nH]1`, for which the EC50 lay within 2.51 to 3.98 µM.

For the molecule `COc1ccccc1-c1nc(SCC(=O)N2CCOCC2)n[nH]1`, the EC50 was not above 2 µM.

As for `COc1ccccc1-c1nnc(SCC(=O)Nc2ccccc2[N+](=O)[O-])[nH]1`, the EC50 was not above 2 µM.

For the molecule `COc1cc([N+](=O)[O-])ccc1-c1cc(-c2ccccc2)n[nH]1`, the EC50 is not above 2 µM.

For `COc1ccccc1-c1cc(OCc2ccccc2F)n[nH]1`, the EC50 is not below 5.01 µM.

In the case of `COc1ccc(NS(=O)(=O)c2ccccc2)cc1-c1cc(-c2ccccc2)n[nH]1`, the EC50 fell in the range of 2.51 to 3.98 µM.

On to `COc1ccccc1-c1cc(-c2cccc(NC(C)=O)c2)n[nH]1`, for which the EC50 is not below 5.01 µM.

On to `c1ccc(-c2cc(-c3cccc4c3OCC4)[nH]n2)cc1`, for which the EC50 fell in the range of 2.51 to 3.98 µM.

With `Fc1ccc(-c2cc(-c3ccccc3Oc3ccccc3)[nH]n2)cc1`, the EC50 lay within 2.51 to 3.98 µM.

For `COc1ccccc1-c1nc(SCc2ccccc2F)n[nH]1`, the EC50 lay in the range of 2.51 to 3.98 µM.

For the molecule `COc1ccc(NCc2ccccc2)cc1-c1cc(-c2ccccc2)n[nH]1`, the EC50 is not below 5.01 µM.

For `c1ccc(COc2ccc(-c3cc(-c4ccccc4)n[nH]3)c(OCc3ccccn3)c2)cc1`, the EC50 was not above 2 µM.

As for `COc1ccc(NC(=O)c2cncs2)cc1-c1cc(-c2ccccc2)n[nH]1`, the EC50 was not below 5.01 µM.
